Test [1] addresses T1, Tyrosine-protein phosphatase non-receptor type 2 (Homo sapiens, UniProt P17706).
T1 sequence (P17706 whole entry): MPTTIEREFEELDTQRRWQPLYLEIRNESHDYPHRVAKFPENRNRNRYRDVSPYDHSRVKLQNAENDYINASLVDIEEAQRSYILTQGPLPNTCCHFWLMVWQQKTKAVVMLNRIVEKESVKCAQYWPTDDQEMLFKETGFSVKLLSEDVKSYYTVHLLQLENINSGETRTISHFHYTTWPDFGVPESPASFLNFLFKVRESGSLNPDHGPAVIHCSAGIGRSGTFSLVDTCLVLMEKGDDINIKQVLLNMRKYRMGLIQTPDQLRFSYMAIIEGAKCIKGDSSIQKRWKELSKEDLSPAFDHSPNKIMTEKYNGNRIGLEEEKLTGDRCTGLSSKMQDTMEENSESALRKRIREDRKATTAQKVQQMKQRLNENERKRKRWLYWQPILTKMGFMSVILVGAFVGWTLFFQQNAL
As to the kind of experiment: Inhibition of TCPTP by pNPP assay.

Test [2] deals with T2, Tyrosine-protein phosphatase non-receptor type 1 (Homo sapiens, UniProt P18031).
T2 sequence (P18031 whole entry): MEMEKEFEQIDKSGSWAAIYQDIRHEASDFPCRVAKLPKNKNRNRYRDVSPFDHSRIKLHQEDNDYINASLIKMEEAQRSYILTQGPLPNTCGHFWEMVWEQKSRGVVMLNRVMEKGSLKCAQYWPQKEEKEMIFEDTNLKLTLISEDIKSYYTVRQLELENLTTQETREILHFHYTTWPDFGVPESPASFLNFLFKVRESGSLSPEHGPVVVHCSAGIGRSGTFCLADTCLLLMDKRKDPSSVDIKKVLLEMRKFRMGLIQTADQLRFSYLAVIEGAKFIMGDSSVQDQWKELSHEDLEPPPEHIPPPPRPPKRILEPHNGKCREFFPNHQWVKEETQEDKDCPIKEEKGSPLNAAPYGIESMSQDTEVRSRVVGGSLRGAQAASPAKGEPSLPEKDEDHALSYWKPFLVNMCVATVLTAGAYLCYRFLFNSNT
Briefly: Inhibition of PTP1B by pNPP assay.

Test [3] in a line: Selectivity for PTP1B over TCPTP.

By IC50 is commonly meant the concentration at which inhibition is half-maximal. Lower therefore signals higher potency.

For the molecule `O=C1CC(c2ccc(CC(NS(=O)(=O)c3cccc(F)c3)c3ncc(Cc4ccccc4)[nH]3)cc2)S(=O)(=O)N1` (configuration not stated), the 50% inhibitory concentration (IC50) came to 0.27 µM in test [1] and 0.25 µM in test [2]. `O=C1CC(c2ccc(CC(NS(=O)(=O)c3cccc(C(F)(F)F)c3)C3=NC[C@H](c4ccccc4)N3)cc2)S(=O)(=O)N1` (some centres not stated): the concentration for half-maximal inhibition (IC50) in test [1] amounted to 2.07 µM; in test [2], 2.9 µM. The matching figures for `O=C1CC(c2ccc(CC(NS(=O)(=O)c3cccc(C(F)(F)F)c3)c3ncc[nH]3)cc2)S(=O)(=O)N1` (configuration not stated): 0.27 µM and 0.24 µM. The molecule `O=C1CC(c2ccc(CC(NS(=O)(=O)c3cccc(F)c3)C3=NC[C@@H](Cc4ccccc4F)N3)cc2)S(=O)(=O)N1` (some centres not stated) returned an IC50 in test [1] of 0.038 µM.

`COC(=O)c1c(O)cccc1OCCCC[C@@H]1CN=C(C(Cc2ccc(C3CC(=O)NS3(=O)=O)c(C)c2)NS(=O)(=O)c2cccc(F)c2)N1` (some centres not stated): the values for the IC50 in test [1] and in test [2] were 0.065 µM and 0.11 µM, respectively. `O=C1CC(c2ccc(CC(NS(=O)(=O)c3cccc(C(F)(F)F)c3)c3nc4ccccc4[nH]3)cc2)S(=O)(=O)N1` (configuration not stated): it took 0.043 µM to reach half-maximal inhibition in test [1] (IC50).

Regarding `Cc1cc(CC(NS(=O)(=O)c2cccc(F)c2)c2ncc(CCCOc3cccc(O)c3C(=O)O)[nH]2)ccc1C1CC(=O)NS1(=O)=O` (configuration not stated), the IC50 turned out to be 0.17 µM in test [1] and 0.12 µM in test [2]. Consider `C[C@@H]1CN=C(C(Cc2ccc(C3CC(=O)NS3(=O)=O)cc2)NS(=O)(=O)c2cccc(C(F)(F)F)c2)N1` (some centres not stated), for which the IC50 was determined as 0.42 µM in test [1] and 0.54 µM in test [2]. The corresponding values for `O=C1CC(c2ccc(CC(NS(=O)(=O)c3cccc(C(F)(F)F)c3)C3=NC[C@@H](Cc4ccccc4)N3)cc2)S(=O)(=O)N1` (some centres not stated) are 0.12 µM and 0.15 µM. Take `O=C1CC(c2ccc(CC(NS(=O)(=O)c3cccc(F)c3)c3nc(-c4ccccc4)c[nH]3)cc2)S(=O)(=O)N1` (configuration not stated): the IC50 in test [1] is 0.09 µM; in test [2], 0.16 µM. Take `C[C@H]1CN=C(C(Cc2ccc(C3CC(=O)NS3(=O)=O)cc2)NS(=O)(=O)c2cccc(C(F)(F)F)c2)N1` (some centres not stated): the IC50 turned out to be 0.67 µM in test [1] and 0.81 µM in test [2].

For `Cc1cc(CC(NS(=O)(=O)c2cccc(F)c2)c2ncc(CCCCOc3cccc(O)c3C(=O)O)[nH]2)ccc1C1CC(=O)NS1(=O)=O` (configuration not stated), the IC50 in test [1] was 0.046 µM; in test [2], 0.032 µM. On to `Cc1cc(CC(NS(=O)(=O)c2cccc(F)c2)C2=NC[C@@H](CCCCOc3cccc(O)c3C(=O)O)N2)ccc1C1CC(=O)NS1(=O)=O` (some centres not stated), for which the values for the IC50 in test [1] and in test [2] were 0.046 µM and 0.022 µM, respectively. The Ratio IC50 in test [3] was found to be 2.

For `O=C1CC(c2ccc(CC(NS(=O)(=O)c3cccc(F)c3)c3ncc(CCCc4ccccc4)[nH]3)cc2)S(=O)(=O)N1` (configuration not stated), 0.024 µM corresponded to half-maximal inhibition in test [1] (IC50). For `O=C1CC(c2ccc(CC(NS(=O)(=O)c3cccc(F)c3)C3=NC[C@@H](Cc4ccccc4)N3)cc2)S(=O)(=O)N1` (some centres not stated), the IC50 in test [1] was found to be 0.14 µM; in test [2] it was 0.21 µM. As for `O=C1CC(c2ccc(CC(NS(=O)(=O)c3cccc(C(F)(F)F)c3)c3ncc(CCCc4ccccc4)[nH]3)cc2)S(=O)(=O)N1` (configuration not stated), the half-inhibitory concentration (IC50) was found to be 0.051 µM in test [1] and 0.052 µM in test [2]. Consider `Cc1cc(CC(NS(=O)(=O)c2cccc(F)c2)C2=NC[C@@H](COc3cccc(S(C)(=O)=O)c3)N2)ccc1C1CC(=O)NS1(=O)=O` (some centres not stated), for which the IC50 turned out to be 0.47 µM in test [1] and 0.8 µM in test [2]. As for `O=C1CC(c2ccc(CC(NS(=O)(=O)c3cccc(C(F)(F)F)c3)C3=NC[C@H](Cc4ccccc4)N3)cc2)S(=O)(=O)N1` (some centres not stated), the values for the half-maximal inhibitory concentration (IC50) in test [1] and in test [2] were 1.1 µM and 1.3 µM, respectively. In the case of `O=C1CC(c2ccc(CC(NS(=O)(=O)c3cccc(F)c3)c3ncc(CCc4ccccc4)[nH]3)cc2)S(=O)(=O)N1` (configuration not stated), the IC50 in test [1] worked out at 0.1 µM; in test [2], 0.18 µM. Consider `O=C1CC(c2ccc(CC(NS(=O)(=O)c3cccc(C(F)(F)F)c3)c3ncc(CCCCc4ccccc4)[nH]3)cc2)S(=O)(=O)N1` (configuration not stated), for which the IC50 in test [1] is 0.16 µM; in test [2] it was 0.2 µM. The corresponding values for `O=C1CC(c2ccc(CC(NS(=O)(=O)c3cccc(C(F)(F)F)c3)C3=NCCN3)cc2)S(=O)(=O)N1` (configuration not stated) are 0.5 µM and 0.7 µM.

Molecule `O=C1CC(c2ccc(CC(NS(=O)(=O)c3cccc(C(F)(F)F)c3)c3ncc(-c4ccccc4)[nH]3)cc2)S(=O)(=O)N1` (configuration not stated) displayed a half-inhibitory concentration (IC50) in test [1] of 0.061 µM.

In the case of `O=C1CC(c2ccc(CC(NS(=O)(=O)c3cccc(C(F)(F)F)c3)C3=NC[C@@H](c4ccccc4)N3)cc2)S(=O)(=O)N1` (some centres not stated), the IC50 in test [1] turned out to be 0.43 µM; in test [2], 0.66 µM. Take `O=C1CC(c2ccc(CC(NS(=O)(=O)c3cccc(C(F)(F)F)c3)c3ncc(Cc4ccccc4)[nH]3)cc2)S(=O)(=O)N1` (configuration not stated): 0.23 µM corresponded to half-maximal inhibition in test [1] (IC50). For `CC1(C)CN=C(C(Cc2ccc(C3CC(=O)NS3(=O)=O)cc2)NS(=O)(=O)c2cccc(C(F)(F)F)c2)N1` (configuration not stated), the IC50 in test [1] came to 0.7 µM; in test [2] it was 0.93 µM. On to `O=C1CC(c2ccc(CC(NS(=O)(=O)c3cccc(F)c3)C3=NC[C@@H](CCc4ccccc4)N3)cc2)S(=O)(=O)N1` (some centres not stated), for which the results for the IC50 in test [1] and in test [2] were 0.068 µM and 0.13 µM, respectively.

For `Cc1cc(CC(NS(=O)(=O)c2cccc(F)c2)C2=NC[C@@H](CCCOc3cccc(S(C)(=O)=O)c3)N2)ccc1C1CC(=O)NS1(=O)=O` (some centres not stated), the figures for the IC50 in test [1] and in test [2] were 0.084 µM and 0.16 µM, respectively.

As for `COC(=O)c1c(O)cccc1OCCCCc1cnc(C(Cc2ccc(C3CC(=O)NS3(=O)=O)c(C)c2)NS(=O)(=O)c2cccc(F)c2)[nH]1` (configuration not stated), the half-inhibitory concentration (IC50) in test [1] is 0.17 µM; in test [2] it was 0.16 µM. For `NC(=O)C(Cc1ccc(C2CC(=O)NS2(=O)=O)cc1)NS(=O)(=O)c1cccc(C(F)(F)F)c1` (configuration not stated), the values for the IC50 in test [1] and in test [2] were 5 µM and 5.03 µM, respectively. As to `COC(=O)c1c(O)cccc1OCCCc1cnc(C(Cc2ccc(C3CC(=O)NS3(=O)=O)c(C)c2)NS(=O)(=O)c2cccc(F)c2)[nH]1` (configuration not stated), the IC50 in test [1] is 0.17 µM; in test [2], 0.35 µM. `O=C1CC(c2ccc(CC(NS(=O)(=O)c3cccc(C(F)(F)F)c3)c3ncc(CCc4ccccc4)[nH]3)cc2)S(=O)(=O)N1` (configuration not stated): the IC50 in test [1] and in test [2] was 0.17 µM each time. As to `O=C1CC(c2ccc(CC(NS(=O)(=O)c3cccc(F)c3)c3ncc(CCCCc4ccccc4)[nH]3)cc2)S(=O)(=O)N1` (configuration not stated), the figures for the IC50 in test [1] and in test [2] were 0.11 µM and 0.26 µM, respectively. On to `Cc1cc(CC(NS(=O)(=O)c2cccc(F)c2)C2=NC[C@@H](CCOc3cccc(S(C)(=O)=O)c3)N2)ccc1C1CC(=O)NS1(=O)=O` (some centres not stated), for which the results for the IC50 in test [1] and in test [2] were 0.025 µM and 0.023 µM, respectively.
